Measurements from patent EP4578855A1, “PROLYL HYDROXYLASE INHIBITOR AND USE THEREOF” (Suzhong Pharmaceutical Group Co., Ltd., priority 2022, dated 2024).
Values joined by “and” are separate entries in the source; they are usually repeats but may differ in a detail not shown here. Equal entries are not always repeated.

Tests used:
EPO (erythropoietin) [1] = assay: Pharmacological evaluation: influence of continuous administration on EPO level; type: in vivo, SD rats; settings: SD rat, continuous chronic administration, in words
EPO (erythropoietin) [2] = assay: as above; type: in vivo, SD rats; settings: for EPO levels in serum of the rats: after 14 days of administration; for EPO levels in plasma of the rats: after administration, compared with the group of positive drug Enarodustat; for EPO level after 14 days of administration: individual rats 1-6; for EPO level after 14 days of administration / EPO level after 14 days of administration, Mean: 0.3 mg/mL, 10 mL/kg, once a day for 14 consecutive days, blood 4 hours after the drug on the 14th day, 2904.6 pg/mL was an upper limit of measurement; for EPO level after 14 days of administration, Mean: mean of 6 rats
Procedure: This experiment was intended to evaluate an influence of continuous administration of the compounds prepared in Embodiments 12, 13 and 14 on EPO (erythropoietin) in SD rats.
• Line: SD (Sprague Dawley) • Weeks of age and weight: 8 weeks, weight 200 g to 220 g • Sex: male • Animal source: Beijing Vital River Laboratory Animal Technology Co., Ltd.
• Positive drug: Enarodustat • Description: commercialized drugs approved for marketing in Japan • Specification and content: 2 mg JTZ-951(Enarodustat), 140 capsules/box
After a week of adaptive feeding, SD rats were randomly divided into 3 groups, 6 rats in each group, which were namely a blank group, a positive drug group (Enarodustat) and a group of compound in Embodiment 12. An Enarodustat tablet was crushed by a mortar, then quantitatively added with 0.5% methyl cellulose, and magnetically stirred and mixed evenly; and the compound prepared in Embodiment 12 was weighed, then quantitatively added with 0.5% methyl cellulose, and magnetically stirred and mixed evenly. […] The drug was given once a day for 14 consecutive days, and blood was taken to measure an EPO level 4 hours after the drug was given on the 14th day.

[3] = test system: human hepatocarcinoma cell line Hep3B; assay: In-vitro erythropoietin (EPO)-inducing activity experiment (EPO ELISA, OD450); type: cell-based; settings: Hep3B cells, incubated 24 hours at 37°C
Procedure: In-vitro erythropoietin (EPO)-inducing activities of the compounds in Embodiments 10 to 12 were evaluated by using a human hepatocarcinoma cell line Hep3B (ATCC). Hep3B cells were cultured in an EMEM medium (Eagle's Minimum Essential Medium) at 37°C in the presence of 10% fetal bovine serum (FBS). Experimental steps were as follows: • (1) Cell preparation: the cells were inoculated in a 96-well plate, and cell plating was carried out according to an amount of 100 µL per well based on 2*10~4 per well. • (2) Preparation of compound concentration gradient: 100 µM, 20 µM, 2-parallel well detection. A solution with 200 times final concentration was prepared in a 96-well plate, the compound was diluted 200/3 times by using a cell culture medium, and then 50 µL of the compound was sucked for drug administration to the cells. 50 µL of DMSO-containing culture solution was added into a negative control well to make a final concentration contain 5 ‰ DMSO, and 50 µL of positive compound with the highest concentration was added into a positive control well to incubate the cells at 37°C for 24 hours. • (3) The reaction plate was washed twice with 1X Wash Buffer according to about 400 µL per well. • (4) 100 µL of diluted standard (comprising a standard blank control) was added into an appropriate well. • (5) 50 µL of sample and 50 µL of Sample Diluent were added into a sample well. • (6) 50 µL of 1X Biotin Conjugated Antibody were added into all wells to incubate the cells at room temperature for 1 hour. • (7) The reaction plate was washed with 1X Wash Buffer for 6 times according to about 400 µL per well. • (8) 100 µL of 1X Streptavidin-HRP was added in to each well to incubate the cells at room temperature for 15 minutes. • (9) The reaction plate was washed with 1X Wash Buffer for 6 times according to about 400 µL per well. • (10) 100 µL of TMB Substrate Solution was added into each well to incubate the cells at room temperature for 10 minutes. • (11) 100 µL of Stop Solution was added into each well. • (12) OD450 was read by EnSight.
The EPO-inducing activities of the compounds were expressed as the concentration for 50% of maximal effect (EC50).

PHD2 enzyme = target: T1, PHD2 enzyme (Homo sapiens, UniProt Q9GZT9); assay: Detection of PHD2 enzyme activity inhibition (FITC-HIF1α tracer, mP read-out); type: biochemical; settings: test concentration from 10 µM, diluted 3 times into 10 concentrations; read-out: IC50
T1 construct: purchased Active motif
T1 sequence (Q9GZT9 whole entry, species assumed): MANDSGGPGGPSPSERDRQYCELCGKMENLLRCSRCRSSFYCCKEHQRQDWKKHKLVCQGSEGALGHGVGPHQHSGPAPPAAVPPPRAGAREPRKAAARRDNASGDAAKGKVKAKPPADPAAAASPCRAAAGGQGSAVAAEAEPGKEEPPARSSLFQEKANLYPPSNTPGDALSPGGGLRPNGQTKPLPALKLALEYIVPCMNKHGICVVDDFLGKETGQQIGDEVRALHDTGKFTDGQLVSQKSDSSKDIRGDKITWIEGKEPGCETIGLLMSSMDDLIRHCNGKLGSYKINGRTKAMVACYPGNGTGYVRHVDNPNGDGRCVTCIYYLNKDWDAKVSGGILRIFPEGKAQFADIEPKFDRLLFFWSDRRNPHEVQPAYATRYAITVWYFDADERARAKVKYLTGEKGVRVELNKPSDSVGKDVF
Procedure: (1) A 1×Assay buffer was prepared. […] 100 nL of 100% DMSO was added into a negative control well and a positive control well respectively. (3) An enzyme solution with 2 times final concentration was prepared with the 1×Assay buffer. (4) 5 µL of the enzyme solution with 2 times final concentration was added into a compound well and the positive control well respectively. (5) 5 µL of the 1 ×Assay buffer was added into the negative control well. (6) The 384-well plate was centrifuged at 1000 rpm for 30 seconds, oscillated and mixed evenly, and then incubated for 15 minutes. (7) A tracer solution with 2 times final concentration was prepared with the 1×Assay buffer, and 5.0 µL of the tracer solution with 2 times final concentration was added to start the reaction.

[4] = Subacute toxicity test, 14 consecutive days; type: in vivo; settings: SD rats, 10 mg/kg once a day for 14 consecutive days, in words
Description: A proper amount of the compound in Embodiment 13 and a proper amount of the compound in Embodiment 14 were weighed by a balance and respectively placed into proper glass bottles, then DMSO, Solutol HS-15 and 0.9% physiological saline (in a ratio of v: v: v = 5%: 10%: 85%) were sequentially added into the glass bottles, and vortexed and stirred, and a drug dissolution condition was continuously concerned in the stirring process until the compounds were completely dissolved/suspended. Finally, drug solutions of the compound in Embodiment 13 and the compound in Embodiment 14 with a concentration of 0.67 mg/mL were prepared for current use.
An animal room was well ventilated, equipped with an air-conditioner, kept at a temperature of 20°C and 25°C and a humidity of 40% to 70%, and in light and dark conditions for 12 hours respectively, and the animals could eat and drink freely. SD rats with good physical signs could be selected for this experiment after being adaptively fed for at least 3 days before administration. Table 23 Source and number of experimental animals
Any operation on the experimental animals in this experiment met the requirements of the "Regulations for the Administration of Affairs Concerning Experimental Animals" issued by the Ministry of Science and Technology of the People's Republic of China. In this experiment, a solvent control group, an administration group of compound in Embodiment 13 and an administration group of compound in Embodiment 14 were set up. Administration dosages of the administration group of compound in Embodiment 13 and the administration group of compound in Embodiment 14 were (10 mg/kg) once a day for 14 consecutive days, while the same amount of blank solvent was given to the blank control group, and administration volumes were all 15 mL/kg. After each administration, symptoms and degrees of toxic reaction of the animals were observed. Recovery observation was carried out for 7 days after the last administration. […]
During the experiment, experimenters and veterinarians should observe physical signs and health conditions of the experimental animals continuously. Any abnormal manifestations of the animals, such as pain, depression and decreased activity should be recorded in original records of the experiment. […]
During the experiment, all animals were observed beside cages at least twice a day, and observed continuously for 2 hours after the drug administration. During the drug administration, if the animals had serious side effects or died, observation results should be recorded in a corresponding form. […]
The animals should be weighed before daily drug administration for 14 consecutive days, and the weights were recorded in a corresponding form. Food intakes of the experimental animals were detected during the experiment. […]

[5] = Pharmacokinetic evaluation after intravenous injection or intragastric administration, plasma LC-MS/MS; type: in vivo, SD rats
Description: After the compounds were given to SD rats by intravenous injection or intragastric administration, concentrations of related compounds in plasma were detected by an LC-MS/MS method, and pharmacokinetics and absolute bioavailability of the compounds prepared in Embodiments 13 and 14 in the rats were preliminarily evaluated.
2. Line: Sprague Dawley rats, sex: male, weight: 200 g to 250 g
Pharmacokinetic characteristics of rodents after intravenous injection and oral administration of the compounds were tested by a standard scheme. In the experiment, a candidate compound was prepared into a clear solution, and given to the rats by single intravenous injection and intragastric administration. A solvent for intravenous injection was a certain proportion of N,N-dimethylacetamide (DMA) and 10% Solutol HS15 solution, and a solvent for oral administration was a certain proportion of sodium carboxymethyl cellulose (CMC) suspension. 5 minutes, 15 minutes, 30 minutes, 1 hour, 2 hours, 4 hours, 6 hours, 8 hours, 10 hours and 24 hours after drug administration, blood samples of the animals were respectively collected into K2EDTA anticoagulation tubes, which were temporarily stored on ice until centrifugation.

[6] = SD rats, in words, compared with Enarodustat in the table
[7] = male SD rats, route and dose not given

With `O=C(O)CNC(=O)c1c(O)cc(C2CCc3ccccc3C2)n2ncnc12` (centres unmarked) [Compound in Embodiment 12, [(7-hydroxy-5-(1,2,3,4-tetrahydronaphthalene-2-yl)-[1,2,4]triazolo[1,5-a]pyridine-8-carbonyl)amino]acetic acid] as the compound, how does the hemoglobin level (EPO (erythropoietin) [1]) read?
The hemoglobin level was “significantly increase”.

And the EPO level (EPO (erythropoietin) [2]; SD rat, continuous chronic administration, in words)?
The EPO level was “significantly increase”.

And the “EPO levels in serum of the rats” value (EPO (erythropoietin) [2]; in words)?
The value was “increased significantly”.

What about the “EPO levels in plasma of the rats” value (EPO (erythropoietin) [2]; in words) of the same compound?
The value was “significantly higher”.

And the “EPO level after 14 days of administration” value (EPO (erythropoietin) [2])?
The value was 2649.3 pg/mL and ≥ 2904.6 pg/mL (4×) and 2882.6 pg/mL.

What about the “EPO level after 14 days of administration, Mean” value (EPO (erythropoietin) [2]) of the same compound?
Its value is 2858.4 pg/mL.

And the EC50 ([3]; Homo sapiens, Hep3B, 24 h)?
Its EC50 is 6.79 µM.

And the IC50 (PHD2 enzyme)?
The IC50 was 0.0343 µM.

With `O=C(O)CNC(=O)c1c(O)cc(C2CCc3ccccc3C2)n2ncnc12` (single isomer, unassigned) [Compound in Embodiment 14, [(7-hydroxy-5-(1,2,3,4-tetrahydronaphthalene-2-yl)-[1,2,4]triazolo[1,5-a]pyridine-8-carbonyl)amino]acetic acid] as the compound, how does the “EPO levels in serum of the rats” value (EPO (erythropoietin) [2]; in words) read?
The value was “increased significantly”.

And the “EPO levels in plasma of the rats” value (EPO (erythropoietin) [2]; in words)?
The value was “significantly higher”.

And the “EPO level after 14 days of administration” value (EPO (erythropoietin) [2])?
The value was 2279.1 pg/mL and 2095.6 pg/mL and 1982.7 pg/mL and 1943.6 pg/mL and 2038.9 pg/mL and 2137.6 pg/mL.

What about the “EPO level after 14 days of administration, Mean” value (EPO (erythropoietin) [2]) of the same compound?
Its value is 2079.6 pg/mL.

What about the EC50 [3] of the same compound?
The EC50 was 4.16 µM.

And the toxicities ([4]; compared with Enarodustat)?
Its toxicities is “lower than that of Enarodustat”.

And the gastrointestinal findings [4]?
The gastrointestinal findings was “no obvious gastrointestinal necrosis, and bleeding spots or flatulence in a black stomach part”.

What about the half-lives [5, 6] of the same compound?
The half-lives was “obviously longer”.

And the in-vivo exposure [5, 6]?
The in-vivo exposure was “higher”.

What about the “Bioavailability F” value ([5]; male SD rats, intragastric vs intravenous) of the same compound?
The value was 31.3%.

What about the “Concentration integral AUC” value [5, 7] of the same compound?
Its value is 15740 ng·h/mL.

What about the “Half-life period T1/2” value [5, 7] of the same compound?
Its value is 2.43 h.
